The values that follow come from patent US20160143917A1, “COMPOSITIONS AND METHODS FOR MODULATING HIV ACTIVATION” (priority 2013, published 2016).

“And” between values parts separate entries of the source, which are not always exact repeats. Identical values can stand only once.

Experiment [1] relates to latently HIV provirus infected Jurkat (T-cell) clone 2D10 cells carrying a GFP-expressing provirus. Briefly: Reactivation of latent HIV provirus (GFP expression) in 2D10 cells. In kind it is cell-based, human. Conditions: for Un-stimulated: drug alone, no TNFα or SAHA, drug concentration (Fulvestrant 2.5 μM, Y-134 5 μM, Endoxifen 5 μM, MPP 5 μM, Tamoxifen 10 μM, Gossypol 5 μM, PPT 100 μM, Stilbestrol 5 μM); for 250 nM SAHA drug: drug at row concentration plus sub-optimum 250 nM SAHA; for +100 pg/ml TNFα drug: drug plus sub-optimum 100 pg/ml TNFα; for +400 pg/ml TNFα drug: pre-treatment with agonist at row concentration plus 400 pg/ml TNFα; for 2 μM SAHA drug: pre-treatment with agonist at row concentration plus 2 μM SAHA. From the text:
Still other ESR-1 antagonists can be identified and screened for potential induction of latent HIV activation by using cell based assays described in Examples 1 and 2. For example to determine whether a composition or potential ESR-1 antagonist can induce HIV-1 provirus re-activation in latently infected primary T-cells (Th17), the ESR-1 antagonist can be administered to latently HIV provirus infected Jurkat (T-cell) clone 2D10 cells carrying a GFP-expressing provirus. The level of GFP expression can then be measured to determine activation. In another example, the ESR-1 antagonist can be administered to the latently infected primary T-cells (Th17) and phosphorylation of serine 175 of CDK9 can be measured by flow cytometry analysis. Along with CDK9 pSer175, expression of viral protein Nef can also measured.
FIG. 2 illustrates the ESR1 antagonist Fulvestrant weakly stimulates 2D10 reactivation and sensitizes the cells to reactivation by sub-optimal concentrations of TNF-α. A. Unstimulated cells showing the low basal activation levels of approximately 2%. […] C. Activation of cells with 2.5 μM Fulvestrant.
To further validate involvement of ESR-1 in latency maintenance program, we have examined a series of antagonists and agonist as represented in Table 2 on 2D10. In all the cases it was observed that blocking of ESR-1 by antagonist either constitutively re-activate or sensitizes the pro-virus to sub-optimum dose of TNFα (100 pg/ml) and SAHA (250 nM).

Experiment [2] has as its system CHME5/HIV cells, a latently infected Fetal Microglia Cell line. Briefly: Reactivation of latent HIV provirus (GFP expression) in microglial cells. It counts as cell-based. As for the experimental part:
FIGS. 5(A-D) illustrate histograms showing GFP expression in CHME5/HIV cells, a latently infected Fetal Microglia Cell line carrying a GFP-expressing provirus, that are: (A) unstimulated; (B) administered a suboptimal dose of TNFα (10 ng/ml); (C) administered […] Fulvestrant; or (D) pre-treated with Fulvestrant and administered a suboptimal dose of TNFα.
A. Unstimulated CHME5/HIV cells, a latently infected Fetal Microglia Cell line. Basal activation levels were 2.31%. B. Reactivation of CHME5/HIV cells with a suboptimal dose of TNFα (10 ng/ml) induced 13.96% of the proviruses. C. […] These observations indicate that pro-virus reactivation by modulating the ESR-1 is specific for T-cell.

Experiment [3] concerns Latently HIV-1 infected Th17 primary cells. The experiment in a line: Reactivation of latent provirus in primary Th17 cells, HIV Nef protein expression. It counts as cell-based. Particulars: single agent; untreated cells 2.54%. An excerpt: FIG. 3 illustrates latently infected primary T-cells are reactivated by the ESR1 antagonist, Fulvestrant (ICI.182780). […] B. Stimulation of the latently infected cells through the T-cell receptor using antibodies to CD3/CD28 re-activated 60.82% of the cells in the population. C. […] Method: Naive T-cells from healthy donors were activated using anti-CD3/[…] antibodies and polarized in the direction of primary Th-17 cells using a cocktail of cytokines. The exponentially growing cells were infected with HIV-1 virus containing d2EGFP fused to CD8a for surface expression of the reporter gene. The CD8a positive cells were purified using CD8a antibody conjugated magnetic beads. The HIV-1 infected cells were allowed to become quiescent by culturing in media containing minimal levels of IL2.

Experiment [4] concerns latently infected primary T-cells (Th17). Briefly: CDK9 pSer175 and Nef by flow cytometry in latently infected primary T-cells. It counts as cell-based. As for the experimental part: At the time of HIV-1 provirus re-activation one of the key marker is phosphorylation of serine 175 amino acid residue of CDK9 (CDK9 pSer175). To determine the status of HIV-1 provirus re-activation in latently infected primary T-cells (Th17) by ESR-1 antagonist Tamoxifen, phosphorylation of serine 175 of CDK9 was measured by flow cytometry analysis. Along with CDK9 pSer175, expression of viral protein Nef was also measured. […] Keeping that in mind, latently infected primary T-cell was treated with tamoxifen and SAHA alone or in combination where sub-optimum dose of (250 nM) was used (FIGS. 11 B, D, E). […] Therefore re-activation of latent provirus in Gossypol and/or SAHA treated primary T-cell was also examined (FIGS. 11 C-D).
A general note: Flow cytometry measures light scatter and fluorescence of single cells or particles in a stream.

On to `CC/C(=C(\c1ccc(O)cc1)c1ccc(OCCNC)cc1)c1ccccc1` [Endoxifen], for which, in experiment [1], the Un-stimulated worked out at 9.70%, the “250 nM SAHA drug” value is 26.63% and the “+100 pg/ml TNFα drug” value is listed as 29.31%.
As for `C[C@]12CC[C@@H]3c4ccc(O)cc4C[C@@H](CCCCCCCCC[S+]([O-])CCCC(F)(F)C(F)(F)F)[C@H]3[C@@H]1CC[C@@H]2O` (stereo partly shown) [Fulvestrant], in experiment [2] (2.5 mM Fulvestrant alone), the “stimulation of CHME5/HIV cells (GFP)” value was “did not stimulated CHME5/HIV cells beyond basal levels”. Besides, the “sensitization towards TNFα stimulation (GFP)” value in experiment [2] (pre-treatment with Fulvestrant, then suboptimal TNFα (10 ng/ml)) is “did not sensitize the latent population towards TNFα stimulation”. Moreover, in experiment [3], the “latent proviruses/cells re-activated, measured by expression of the HIV Nef protein” value was 25.27%. For the same molecule, in experiment [1] (2.5 μM Fulvestrant alone), the “reactivation of latent provirus (GFP)” value is listed as “small but significant reactivation”. In experiment [1] (50 μM Fulvestrant alone), this molecule had a GFP levels of 8.05%. In experiment [1], the Un-stimulated is 2.68%, the “250 nM SAHA drug” value was found to be 17.78% and the “+100 pg/ml TNFα drug” value stood at 41.01%. Moreover, the “reactivation of latent population (GFP)” value in experiment [1] (one hour pre-treatment with Fulvestrant, then 100 pg/ml TNFα) turned out to be 41.01%. The “reactivation of pro-virus (GFP)” value in experiment [1] (pre-treatment with Fulvestrant (50 μM) for one hour, then 250 nM SAHA) came to 18.80%.
On to `Cc1cc2c(C(C)C)c(O)c(O)c(C=O)c2c(O)c1-c1c(C)cc2c(C(C)C)c(O)c(O)c(C=O)c2c1O` [Gossypol], for which the “pro-virus re-activation (GFP)” value in experiment [2] (Gossypol alone) came out at 1.60%. For the same molecule, the “re-activation of pro-virus (GFP)” value in experiment [2] (Gossypol combined with 10 ng/ml TNFα (sub-optimum)) is reported as 10.24%. The “proviral re-activation (GFP)” value in experiment [1] (5 μM Gossypol alone) was found to be 30.58%. In experiment [1] (5 μM Gossypol combined with 100 pg/ml TNFα (sub-optimum)), the “re-activation (GFP)” value is on record as 60.15%. In experiment [1], the Un-stimulated is on record as 30.58% and the “+100 pg/ml TNFα drug” value is 60.15%.
Take `Cc1c(-c2ccc(O)cc2)nn(-c2ccc(O)cc2)c1-c1ccc(OCCN2CCCCC2)cc1` [MPP]: in experiment [1], the Un-stimulated turned out to be 14.49%, the “250 nM SAHA drug” value came out at 31.14% and the “+100 pg/ml TNFα drug” value is 39.60%.
Turning to `CCCc1c(-c2ccc(O)cc2)nn(-c2ccc(O)cc2)c1-c1ccc(O)cc1` [PPT, 4,4′,4″-(4-Propyl-[1H]-pyrazole-1,3,5-triyl)trisphenol], the “reactivation of latently infected cells (GFP)” value in experiment [1] (100 μM PPT alone) was “not reactivated”. For the same molecule, in experiment [1], the Un-stimulated was found to be 3.57%, the “+400 pg/ml TNFα drug” value is listed as 13.41% and the “2 μM SAHA drug” value is given as 6.76%. The “activation of the cells (GFP)” value in experiment [1] (pre-treatment with PPT, then SAHA (1 μM)) was 8.77%. Further, in experiment [1] (pretreatment with PPT for one hour, then 400 pg/ml TNFα), the “reactivation induced by TNFα (GFP)” value is given as 13.41%.
For the molecule `O=C(CCCCCCC(=O)Nc1ccccc1)NO` [SAHA, suberoylanilide hydroxamic acid], the “cells induced (GFP)” value in experiment [1] (250 nM SAHA alone (sub-optimum)) was determined as 5.25%. The “re-activation of the population (GFP)” value in experiment [1] (1 μM SAHA alone) was 65.87%. In addition, the “250 nM SAHA” value in experiment [1] (Control (2D10), 250 nM SAHA alone, no ESR-1 drug) is listed as 14.34%. Besides, the “2 μM SAHA” value in experiment [1] (Control (2D10), 2 μM SAHA alone, no ESR-1 drug) was 65.43% and 71.83%.
Regarding `CC/C(=C(/CC)c1ccc(O)cc1)c1ccc(O)cc1` [Stilbestrol], in experiment [1], the Un-stimulated is given as 6.20%, the “+400 pg/ml TNFα drug” value is 33.70% and the “2 μM SAHA drug” value was 4.34%. In addition, in experiment [1] (pre-treatment, optimum dose of TNFα (400 pg/ml) and SAHA (2 μM)), the “effect of agonist pre-treatment on provirus re-activation” value was “block the re-activation of latent pro-virus”.
As for `CC/C(=C(\c1ccccc1)c1ccc(OCCN(C)C)cc1)c1ccccc1` [Tamoxifen], the “re-activation of latent provirus (CDK9 pSer175 and Nef expression)” value in experiment [4] (drug alone) was “failed to re-activate latent provirus”. Further, the “re-activation of latent provirus (CDK9 pSer175 and Nef expression)” value in experiment [4] (drug combined with sub-optimum SAHA (250 nM)) was “elevated expression of both CDK9 pSer175 and Nef”. In addition, in experiment [1], the Un-stimulated is given as 12.09%, the “250 nM SAHA drug” value was determined as 22.50% and the “+100 pg/ml TNFα drug” value was found to be 33.03%.
As to `C[C@]12CC[C@@H]3c4ccc(O)cc4CC[C@H]3[C@@H]1CC[C@@H]2O` [β-estradiol], the “stimulation of latent HIV proviruses (GFP)” value in experiment [1] (estrogen-depleted media, 2 ng/ml β-estradiol alone) is on record as “does not stimulate latent HIV proviruses”. The “responsiveness to TNFα (GFP)” value in experiment [1] (estrogen-depleted media, 2 ng/ml β-estradiol plus 400 pg/ml TNFα) was “did not enhance responsiveness”.
As to TNFα, the “proviruses induced (GFP)” value in experiment [2] (10 ng/ml TNFα alone (suboptimal), basal 2.31%) turned out to be 13.96%. Also, the “re-activation of latent provirus (GFP)” value in experiment [1] (100 pg/ml TNFα alone (sub-optimal)) stood at 15.95%. The “proviral re-activation (GFP)” value in experiment [1] (400 pg/ml TNFα alone) stood at 70.88%. Further, in experiment [1] (Control (2D10), 100 pg/ml TNFα alone, no ESR-1 drug), the “+100 pg/ml TNFα” value is on record as 16.15%. The “400 pg/ml TNFα” value in experiment [1] (Control (2D10), 400 pg/ml TNFα alone, no ESR-1 drug) is 70.88% and 88.12%. For the same molecule, the “proviruses stimulated (GFP)” value in experiment [1] (phenol-red free media, 10% charcoal-stripped FBS (estrogen-depleted), 400 pg/ml TNFα alone) turned out to be 79.59%.
